What was measured:
Format in all cases: ADME, organism-based
Homo sapiens [1] = assay: Evaluation of the pharmacokinetic parameters for Rivastigmine following multiple oral administration of 6 mg Rivastigmine tablets.; details: in vivo, dosed compound id 5, dosed compound name RIVASTIGMINE, regimen Twice daily, tissue Plasma
[2] = (§1) Evaluation of the pharmacokinetic parameters for Rivastigmine 0.5 to 1 hour after administration of 9.5 mg/24 hours Rivastigmine transdermal system (Exelon patch).; details: human, in vivo, topical or ocular, dosed compound id 5, dosed compound name RIVASTIGMINE, regimen Single dose, sampling time1 0.5-1 hr, study dosing duration 24 hr, tissue Plasma
Homo sapiens [3] = assay: as §1; details: in vivo, topical_or_ocular, dosed compound id 5, dosed compound name RIVASTIGMINE, regimen Single dose, sampling time1 0.5-1 hr, study dosing duration 24 hr

With `CCN(C)C(=O)Oc1cccc([C@H](C)N(C)C)c1` [RIVASTIGMINE] the “Ratio AUC(inf)” value (Homo sapiens [1]) was 3.5, the CL renal ([2]; 9.5 mg/24 hours) was 35 to 46.7 mL/min and the fraction unbound ([2]; at 9.5 mg, read-out: Protein binding (converted)) was 0.6. For the same compound, the Tmax (Homo sapiens [3]; tissue Cerebrospinal Fluid (CSF)) was 1.4 to 2.6 h, the Tmax (Homo sapiens [3]; tissue Plasma) was 8 h and the Vd (Homo sapiens [3]; tissue Plasma) was 1.8 to 2.7 L/kg.

Source: ChEMBL document CHEMBL3832545, “DailyMed|setid=29481887-34eb-460a-bd7f-b8755473065a | EXELON - rivastigmine patch, extended release|Physicians Total Care, Inc”
